In brackets after ≈: the same amount, converted by molar mass.
Assays:
Format in all cases: functional
[1] = test system: Escherichia coli; assay: Antimicrobial activity against Escherichia coli K-12 containing delta-lacU169 mutant by microbroth dilution assay
[2] = test system: Staphylococcus aureus; assay: Antimicrobial activity against Staphylococcus aureus ATCC 29213 by microbroth dilution assay
[3] = test system: Escherichia coli; assay: Antimicrobial activity against Escherichia coli K-12 containing delta-lacU169 tolC::Tn10 mutant by microbroth dilution assay
[4] = test system: Escherichia coli; assay: Antimicrobial activity against Escherichia coli K-12 containing delta-lacU169 tolC::Tn10 gyrA S83L mutant by microbroth dilution assay
[5] = test system: Escherichia coli; assay: Antimicrobial activity against Escherichia coli K-12 containing delta-lacU169 tolC::Tn10 gyrA D87Y mutant by microbroth dilution assay

Compound | MIC [1] | MIC [2] | MIC [3] | MIC [4] | MIC [5]
O=c1c2c(n(C3CC3)c3cc(N4CCNCC4)c(F)cc13)COB2O | 128 µg/mL (≈ 373 µM) | 128 µg/mL (≈ 373 µM) | 16 µg/mL (≈ 46.6 µM) | 64 µg/mL (≈ 186 µM) | 32 µg/mL (≈ 93.2 µM)
O=c1c(Br)c(CO)n(C2CC2)c2cc(N3CCNCC3)c(F)cc12 | > 256 µg/mL | > 256 µg/mL | 128 µg/mL (≈ 323 µM) | 256 µg/mL (≈ 646 µM) | > 256 µg/mL
CC(C)(C)OC(=O)N1CCN(c2cc3c(cc2F)c(=O)c2c(n3C3CC3)COB2O)CC1 | > 256 µg/mL | > 256 µg/mL | > 256 µg/mL | > 256 µg/mL | > 256 µg/mL
O=c1cc(CO)n(C2CC2)c2cc(N3CCNCC3)c(F)cc12 | > 256 µg/mL | > 256 µg/mL | > 256 µg/mL | > 256 µg/mL | > 256 µg/mL

— ChEMBL document CHEMBL2311376, “Synthesis and antibacterial evaluation of a novel tricyclic oxaborole-fused fluoroquinolone” (2013)
